# In patent publication US4479943A, “3-Demethoxyistamycin B, the 2"-N-formimidoyl derivative thereof and pharmaceutical composition containing same” (Zaidan Hojin Biseibutsu Kagaku Kenkyu Kai, priority 1982, dated 1984):
# Key:
# [1] = test system: Shigella dysenteriae JS11910; test: Antibacterial MIC, standard serial dilution; type: cell-based; conditions: nutrient agar, 37° C., 17 hours, as free base
# [2] = test system: Escherichia coli JR66/W677; test: Antibacterial MIC, standard serial dilution; type: cell-based; conditions: nutrient agar, 37° C., 17 hours, as free base
# [3] = test system: Escherichia coli K-12; test: Antibacterial MIC, standard serial dilution; type: cell-based; conditions: nutrient agar, 37° C., 17 hours, as free base
# [4] = test system: Pseudomonas aeruginosa B-13; test: Antibacterial MIC, standard serial dilution; type: cell-based; conditions: nutrient agar, 37° C., 17 hours, as free base
# [5] = test system: Escherichia coli K-12 LA290 R56; test: Antibacterial MIC, standard serial dilution; type: cell-based; conditions: nutrient agar, 37° C., 17 hours, as free base
# [6] = test system: Pseudomonas aeruginosa 21-75; test: Antibacterial MIC, standard serial dilution; type: cell-based; conditions: nutrient agar, 37° C., 17 hours, as free base
# [7] = test system: Pseudomonas aeruginosa No. 12; test: Antibacterial MIC, standard serial dilution; type: cell-based; conditions: nutrient agar, 37° C., 17 hours, as free base
# [8] = test system: Staphylococcus aureus Ap01; test: Antibacterial MIC, standard serial dilution; type: cell-based; conditions: nutrient agar, 37° C., 17 hours, as free base
# [9] = test system: Proteus vulgaris 0X19; test: Antibacterial MIC, standard serial dilution; type: cell-based; conditions: nutrient agar, 37° C., 17 hours, as free base
# [10] = test system: Pseudomonas aeruginosa PST1; test: Antibacterial MIC, standard serial dilution; type: cell-based; conditions: nutrient agar, 37° C., 17 hours, as free base
# [11] = test system: Staphylococcus aureus FDA 209P; test: Antibacterial MIC, standard serial dilution; type: cell-based; conditions: nutrient agar, 37° C., 17 hours, as free base
# [12] = test system: Pseudomonas aeruginosa ROS 134/PU21; test: Antibacterial MIC, standard serial dilution; type: cell-based; conditions: nutrient agar, 37° C., 17 hours, as free base
# [13] = test system: Serratia marcescens; test: Antibacterial MIC, standard serial dilution; type: cell-based; conditions: nutrient agar, 37° C., 17 hours, as free base
# [14] = test system: Providencia sp. Pv16; test: Antibacterial MIC, standard serial dilution; type: cell-based; conditions: nutrient agar, 37° C., 17 hours, as free base
# [15] = test system: bacteria; conditions: in words; earlier work; cited from earlier work
# [16] = test system: Serratia sp. 4; test: Antibacterial MIC, standard serial dilution; type: cell-based; conditions: nutrient agar, 37° C., 17 hours, as free base
# [17] = test system: Bacillus subtilis NRRL B-558; test: Antibacterial MIC, standard serial dilution; type: cell-based; conditions: nutrient agar, 37° C., 17 hours, as free base
# [18] = test system: Escherichia coli JR225; test: Antibacterial MIC, standard serial dilution; type: cell-based; conditions: nutrient agar, 37° C., 17 hours, as free base
# [19] = test system: Salmonella typhi T-63; test: Antibacterial MIC, standard serial dilution; type: cell-based; conditions: nutrient agar, 37° C., 17 hours, as free base
# [20] = test system: Pseudomonas aeruginosa A3; test: Antibacterial MIC, standard serial dilution; type: cell-based; conditions: nutrient agar, 37° C., 17 hours, as free base
# [21] = test system: Klebsiella pneumoniae PCI602; test: Antibacterial MIC, standard serial dilution; type: cell-based; conditions: nutrient agar, 37° C., 17 hours, as free base
# [22] = test system: Proteus rettgeri GN466; test: Antibacterial MIC, standard serial dilution; type: cell-based; conditions: nutrient agar, 37° C., 17 hours, as free base
# [23] = test system: Corynebacterium bovis 1810; test: Antibacterial MIC, standard serial dilution; type: cell-based; conditions: nutrient agar, 37° C., 17 hours, as free base
# [24] = test system: Pseudomonas aeruginosa TI-13; test: Antibacterial MIC, standard serial dilution; type: cell-based; conditions: nutrient agar, 37° C., 17 hours, as free base
# [25] = test system: Bacillus anthracis; type: cell-based; conditions: nutrient agar, 37° C., 17 hours, as free base
# [26] = test system: Salmonella enteritidis 1891; test: Antibacterial MIC, standard serial dilution; type: cell-based; conditions: nutrient agar, 37° C., 17 hours, as free base
# [27] = test system: Staphylococcus aureus Smith; test: Antibacterial MIC, standard serial dilution; type: cell-based; conditions: nutrient agar, 37° C., 17 hours, as free base
# [28] = test system: Klebsiella pneumoniae 22#3038; test: Antibacterial MIC, standard serial dilution; type: cell-based; conditions: nutrient agar, 37° C., 17 hours, as free base
# [29] = test system: Mycobacterium smegmatis ATCC 607; test: Antibacterial MIC, standard serial dilution; type: cell-based; conditions: nutrient agar, 37° C., 17 hours, as free base
# [30] = test system: Sarcina lutea PCI 1001; test: Antibacterial MIC, standard serial dilution; type: cell-based; conditions: nutrient agar, 37° C., 17 hours, as free base
# [31] = test system: Escherichia coli K-12 R388; test: Antibacterial MIC, standard serial dilution; type: cell-based; conditions: nutrient agar, 37° C., 17 hours, as free base
# [32] = test system: Pseudomonas aeruginosa GN315; test: Antibacterial MIC, standard serial dilution; type: cell-based; conditions: nutrient agar, 37° C., 17 hours, as free base
# [33] = test system: Serratia sp. SOU; test: Antibacterial MIC, standard serial dilution; type: cell-based; conditions: nutrient agar, 37° C., 17 hours, as free base
# [34] = test system: Proteus rettgeri GN311; test: Antibacterial MIC, standard serial dilution; type: cell-based; conditions: nutrient agar, 37° C., 17 hours, as free base
# [35] = test system: Pseudomonas aeruginosa H9; test: Antibacterial MIC, standard serial dilution; type: cell-based; conditions: nutrient agar, 37° C., 17 hours, as free base
# [36] = test system: Pseudomonas maltophilia GN 907; test: Antibacterial MIC, standard serial dilution; type: cell-based; conditions: nutrient agar, 37° C., 17 hours, as free base
# [37] = test system: Escherichia coli K-12 J5R11-2; test: Antibacterial MIC, standard serial dilution; type: cell-based; conditions: nutrient agar, 37° C., 17 hours, as free base
# [38] = test system: Staphylococcus epidermidis 109; test: Antibacterial MIC, standard serial dilution; type: cell-based; conditions: nutrient agar, 37° C., 17 hours, as free base
# [39] = test system: Providencia sp. 2991; test: Antibacterial MIC, standard serial dilution; type: cell-based; conditions: nutrient agar, 37° C., 17 hours, as free base
# [40] = test system: Escherichia coli K-12 ML1630; test: Antibacterial MIC, standard serial dilution; type: cell-based; conditions: nutrient agar, 37° C., 17 hours, as free base
# [41] = test system: Escherichia coli W677; test: Antibacterial MIC, standard serial dilution; type: cell-based; conditions: nutrient agar, 37° C., 17 hours, as free base
# [42] = test system: Escherichia coli NIHJ; test: Antibacterial MIC, standard serial dilution; type: cell-based; conditions: nutrient agar, 37° C., 17 hours, as free base
# [43] = test system: Bacillus cereus ATCC 10702; test: Antibacterial MIC, standard serial dilution; type: cell-based; conditions: nutrient agar, 37° C., 17 hours, as free base
# [44] = test system: Escherichia coli K-12 ML1629; test: Antibacterial MIC, standard serial dilution; type: cell-based; conditions: nutrient agar, 37° C., 17 hours, as free base
# [45] = test system: Escherichia coli K-12 LA290 R55; test: Antibacterial MIC, standard serial dilution; type: cell-based; conditions: nutrient agar, 37° C., 17 hours, as free base
# [46] = test system: Pseudomonas aeruginosa 99; test: Antibacterial MIC, standard serial dilution; type: cell-based; conditions: nutrient agar, 37° C., 17 hours, as free base
# [47] = test system: Bacillus subtilis PCI 219; test: Antibacterial MIC, standard serial dilution; type: cell-based; conditions: nutrient agar, 37° C., 17 hours, as free base
# [48] = test system: Pseudomonas aeruginosa H11; test: Antibacterial MIC, standard serial dilution; type: cell-based; conditions: nutrient agar, 37° C., 17 hours, as free base
# [49] = test system: Escherichia coli K-12 ML1410; test: Antibacterial MIC, standard serial dilution; type: cell-based; conditions: nutrient agar, 37° C., 17 hours, as free base
# [50] = test system: Escherichia coli K-12 C600 R135; test: Antibacterial MIC, standard serial dilution; type: cell-based; conditions: nutrient agar, 37° C., 17 hours, as free base
# [51] = test system: Micrococcus flavus FDA 16; test: Antibacterial MIC, standard serial dilution; type: cell-based; conditions: nutrient agar, 37° C., 17 hours, as free base
# [52] = test system: Pseudomonas aeruginosa K-Ps 102; test: Antibacterial MIC, standard serial dilution; type: cell-based; conditions: nutrient agar, 37° C., 17 hours, as free base
structure (smiles),measurement,setting,value
"CNCC1CCC(N)C(OC2C(N)CC(O)C(N(C)C(=O)CN)C2O)O1 (stereo not shown) [Demethyl ista B, 3-O-demethylistamycin B]",MIC,[1],3.13 µg/mL
same,MIC,[2],1.56 µg/mL
same,MIC,[3],0.78 µg/mL
same,MIC,[4],25 µg/mL
same,MIC,[5],0.78 µg/mL
same,MIC,[6],25 µg/mL
same,MIC,[7],12.5 µg/mL
same,MIC,[8],0.39 µg/mL
same,MIC,[9],0.39 µg/mL
same,MIC,[10],12.5 µg/mL
same,MIC,[11],0.39 µg/mL
same,MIC,[12],50 µg/mL
same,MIC,[13],1.56 µg/mL
same,MIC,[14],0.78 µg/mL
same,antibacterial activity,[15],active not only against Pseudomonas aeruginosa but also against a variety of resistant bacteria
same,MIC,[16],12.5 µg/mL
same,MIC,[17],0.39 µg/mL
same,MIC,[18],0.78 µg/mL
same,MIC,[19],0.39 µg/mL
same,MIC,[20],0.20 µg/mL
same,MIC,[21],1.56 µg/mL
same,MIC,[22],0.39 µg/mL
same,MIC,[23],0.39 µg/mL
same,MIC,[24],6.25 µg/mL
same,MIC,[25],0.78 µg/mL
same,MIC,[26],1.56 µg/mL
same,MIC,[27],0.39 µg/mL
same,MIC,[28],3.13 µg/mL
same,MIC,[29],0.78 µg/mL
same,MIC,[30],0.39 µg/mL
same,MIC,[31],0.78 µg/mL
same,MIC,[32],6.25 µg/mL
same,MIC,[33],6.25 µg/mL
same,MIC,[34],0.39 µg/mL
same,MIC,[35],12.5 µg/mL
same,MIC,[36],100 µg/mL
same,MIC,[37],1.56 µg/mL
same,MIC,[38],0.39 µg/mL
same,MIC,[39],1.56 µg/mL
same,MIC,[40],3.13 µg/mL
same,MIC,[41],0.78 µg/mL
same,MIC,[42],0.39 µg/mL
same,MIC,[43],1.56 µg/mL
same,MIC,[44],1.56 µg/mL
same,MIC,[45],0.78 µg/mL
same,MIC,[46],25 µg/mL
same,MIC,[47],0.39 µg/mL
same,MIC,[48],25 µg/mL
same,MIC,[49],3.13 µg/mL
same,MIC,[50],1.56 µg/mL
same,MIC,[51],3.13 µg/mL
same,MIC,[52],6.25 µg/mL
